# Laboratory results published in publication PMC6934184, “Selective DNA-PKcs inhibition extends the therapeutic index of localized radiotherapy and chemotherapy” (The Journal of Clinical Investigation, 2019).
# Target: T1, ULK1 (Homo sapiens, UniProt O75385)
# T1 construct: purchased Thermo Fisher Scientific (Life Technologies) SelectScreen
# Test: SelectScreen LanthaScreen
# Format: binding
# Details: 1 µM
# Method: The in vitro kinase selectivity of NU5455 was determined using the SelectScreen Broad Assay Panel (Thermo Fisher Scientific) involving activity and binding assays (Supplemental Table 1). […] Class IA PI3Ks were measured using the p85α subunit.
# Kinase [ATP] % Assay Kinase [ATP] % Assay Kinase [ATP] % Assay Kinase [ATP] % Assay
# DNA-PK Km app 98.3 Z LATS2 n/a 4.7 L KIT D820E n/a 1.3 L GSK3B (GSK3 beta) Km app -2.5 Z
# PIK3C3 (hVPS34) Km app 85.9 A PRKCZ (PKC zeta) Km app 4.7 Z GRK1 n/a 1.3 L BMPR2 n/a -2.5 L
# PIK3C2B (PI3K-C2 beta) 10 28.9 A FGFR1 Km app 4.7 Z BRSK2 n/a 1.2 L CDC42 BPB (MRCKB) Km app -2.5 Z
# SNF1LK2 Km app 26.6 Z MINK1 Km app 4.6 Z NUAK1 (ARK5) Km app 1.2 A AMPK (A2/B2/G2) n/a -2.6 L
# HCK Km app 18.0 Z CSF1R (FMS) Km app 4.3 Z CDK9/cyclin K n/a 1.0 L PRKG1 Km app -2.7 Z
# NEK2 Km app 17.8 Z CSNK1G3 (CK1 gamma 3) Km app 4.2 Z NUAK2 n/a 1.0 L KIT T670E n/a -2.8 L
# ALK Km app 17.3 Z STK32C (YANK3) n/a 4.2 L CDK2/cyclin O n/a 0.9 L ERBB4 (HER4) Km app -2.8 Z
# FGFR3 K650M n/a 16.5 L STK22D (TSSK1) Km app 4.2 Z CAMKK2 (CaMKK beta) n/a 0.9 L PLK4 n/a -2.8 L
# SIK3 n/a 16.1 L TAOK3 (JIK) n/a 4.2 L FGFR3 Km app 0.9 Z GRK7 Km app -3.0 Z
# LYN A Km app 15.2 Z RPS6KA4 (MSK2) Km app 4.2 Z ULK2 n/a 0.9 L MAPKAPK2 Km app -3.1 Z
# BMPR1B (ALK6) n/a 14.5 L PTK2B (FAK2) Km app 4.2 Z KIT D816V n/a 0.9 L FGFR4 Km app -3.1 Z
# INSRR (IRR) Km app 14.1 Z CLK2 Km app 4.1 Z CAMK1 (CaMK1) 10 0.8 A CASK n/a -3.1 L
# PLK2 Km app 14.1 Z STK24 (MST3) Km app 4.1 Z PTK6 (Brk) Km app 0.7 Z GRK5 Km app -3.2 Z
# PRKACA (PKA) Km app 14.0 Z CAMK1D (CaMKI delta) Km app 4.1 Z CAMK2B (CaMKII beta) Km app 0.7 Z EGFR (ErbB1) T790M Km app -3.3 Z
# EIF2AK2 (PKR) n/a 13.3 L INSR Km app 4.1 Z ACVR1 (ALK2) n/a 0.7 L PAK4 Km app -3.3 Z
# PRKX Km app 12.5 Z IRAK1 Km app 4.0 A ABL1 H396P n/a 0.6 L DAPK3 (ZIPK) Km app -3.4 Z
# FGR Km app 12.1 Z SRC N1 Km app 3.9 Z MERTK (cMER) A708S n/a 0.6 L RET M918T n/a -3.5 L
# CLK1 Km app 11.7 Z SRPK2 Km app 3.9 Z MAPKAPK5 (PRAK) Km app 0.6 Z PRKCQ (PKC theta) Km app -3.7 Z
# MARK3 Km app 11.4 Z RPS6KA6 (RSK4) Km app 3.8 Z AKT1 (PKB alpha) Km app 0.5 Z CAMKK1 (CAMKKA) n/a -3.8 L
# PDGFRB (PDGFR beta) Km app 11.0 Z GRK6 Km app 3.7 Z NTRK3 (TRKC) Km app 0.4 Z FLT3 D835Y Km app -3.9 Z
# PRKCN (PKD3) Km app 10.7 Z PKN1 (PRK1) Km app 3.6 Z ZAP70 Km app 0.3 Z ROCK2 Km app -4.1 Z
# STK16 (PKL12) n/a 10.5 L MAP3K8 (COT) 100 3.5 Z CSNK1A1 (CK1 alpha 1) Km app 0.3 Z CHUK (IKK alpha) Km app -4.2 A
# FES (FPS) Km app 10.4 Z FLT4 (VEGFR3) Km app 3.5 Z MYLK (MLCK) n/a 0.2 L AXL Km app -4.2 Z
# ABL1 Km app 10.4 Z GRK4 Km app 3.5 Z MKNK2 (MNK2) n/a 0.2 L PIM2 Km app -4.3 Z
# MUSK Km app 10.3 Z FRK (PTK5) Km app 3.4 Z AMPK (A1/B1/G3) n/a 0.2 L PAK1 Km app -4.4 Z
# MAPK1 (ERK2) Km app 10.1 Z FYN A n/a 3.3 L MAP3K2 (MEKK2) n/a 0.1 L BMPR1A (ALK3) n/a -4.4 L
# BRAF 100 9.9 Z CDK1/cyclin A2 n/a 3.3 L CDK8/cyclin C n/a 0.1 L STK4 (MST1) Km app -4.4 Z
# IGF1R Km app 9.7 Z KIT V559D T670I n/a 3.1 L MARK2 Km app 0.1 Z PRKCH (PKC eta) Km app -4.6 Z
# MAPK14 (p38 alpha) Km app 9.7 Z SPHK2 10 3.1 A ICK n/a 0.0 L SGKL (SGK3) Km app -4.6 Z
# LCK Km app 9.6 Z FGFR3 G697C n/a 3.1 L FGFR2 Km app 0.0 Z PI4KB (PI4K beta) Km app -4.7 A
# MAPK11 (p38 beta) Km app 9.5 Z RIPK2 n/a 3.1 L AKT2 (PKB beta) Km app 0.0 Z PRKCE (PKC epsilon) Km app -4.9 Z
# SRC Km app 9.5 Z PAK6 Km app 3.0 Z EPHB2 Km app -0.1 Z PHKG1 Km app -5.0 Z
# CHEK1 (CHK1) Km app 9.3 Z LYN B Km app 3.0 Z TGFBR2 n/a -0.1 L PDGFRA D842V Km app -5.0 Z
# CAMK2D (CaMKII delta) Km app 9.3 Z DAPK2 n/a 2.9 L TEK (Tie2) Km app -0.1 Z PRKG2 (PKG2) Km app -5.1 Z
# PLK1 Km app 9.2 Z EPHA4 Km app 2.9 Z AURKA (Aurora A) Km app -0.1 Z TYRO3 (RSE) Km app -5.1 Z
# RET Y791F Km app 9.2 Z PIK3CG (p110 gamma) Km app 2.9 A KIT D816H n/a -0.2 L TAOK2 (TAO1) Km app -5.1 Z
# FLT3 Km app 9.1 Z HIPK1 (Myak) Km app 2.8 Z KIT N822K n/a -0.2 L EPHB4 Km app -5.3 Z
# MAPK10 (JNK3) 100 9.0 Z ADRBK2 (GRK3) Km app 2.8 Z PRKACG (PRKAC gamma) n/a -0.2 L AURKC (Aurora C) Km app -5.4 Z
# CSNK2A2 (CK2 alpha 2) Km app 8.7 Z STK17B (DRAK2) n/a 2.7 L TEK (TIE2) Y1108F n/a -0.3 L JAK1 Km app -5.7 Z […]
# T1 sequence (O75385 whole entry): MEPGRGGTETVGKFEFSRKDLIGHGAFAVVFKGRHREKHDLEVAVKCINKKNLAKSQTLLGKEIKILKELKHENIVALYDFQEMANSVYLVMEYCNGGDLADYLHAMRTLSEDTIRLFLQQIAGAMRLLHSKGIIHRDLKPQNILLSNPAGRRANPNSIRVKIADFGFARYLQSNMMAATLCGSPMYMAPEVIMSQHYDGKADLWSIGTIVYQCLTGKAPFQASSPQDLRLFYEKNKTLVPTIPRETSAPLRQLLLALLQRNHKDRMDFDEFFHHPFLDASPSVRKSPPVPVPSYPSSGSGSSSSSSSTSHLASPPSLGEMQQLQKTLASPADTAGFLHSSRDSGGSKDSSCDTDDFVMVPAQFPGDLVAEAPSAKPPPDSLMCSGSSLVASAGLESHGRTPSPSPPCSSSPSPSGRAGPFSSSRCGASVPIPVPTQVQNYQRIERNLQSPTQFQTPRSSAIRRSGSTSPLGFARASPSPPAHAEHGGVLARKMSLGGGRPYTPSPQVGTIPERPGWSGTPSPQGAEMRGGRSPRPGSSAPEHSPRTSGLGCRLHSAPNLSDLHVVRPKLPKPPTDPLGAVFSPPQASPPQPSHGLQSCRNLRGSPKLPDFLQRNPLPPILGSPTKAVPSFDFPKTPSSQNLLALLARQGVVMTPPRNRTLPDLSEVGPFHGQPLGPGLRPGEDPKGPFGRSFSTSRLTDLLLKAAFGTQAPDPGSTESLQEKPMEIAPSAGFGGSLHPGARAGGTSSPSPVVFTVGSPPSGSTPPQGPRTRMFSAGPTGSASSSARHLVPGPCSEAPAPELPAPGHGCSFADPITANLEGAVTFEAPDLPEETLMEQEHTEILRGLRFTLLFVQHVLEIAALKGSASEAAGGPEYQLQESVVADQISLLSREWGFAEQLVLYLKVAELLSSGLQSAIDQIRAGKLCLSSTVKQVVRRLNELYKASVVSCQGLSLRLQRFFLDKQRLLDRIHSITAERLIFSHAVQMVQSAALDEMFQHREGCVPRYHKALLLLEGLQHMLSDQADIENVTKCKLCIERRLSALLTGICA
smiles,measurement,value
CN(C(=O)CN1CCOCC1)c1ccc2sc3c(-c4cccc5c(=O)cc(N6CC7CCC(C6)O7)oc45)cccc3c2c1 [NU5455],% displacement,1.8%
